Assay results as given in publication PMC4658428 (Frontiers in Microbiology, 2015).

Key:
Assay type in all cases: cell-based
[1] = tested on: LdtR mutant Y81A, lacZ reporter in B. subtilis
[2] = tested on: LdtR mutant R37A, lacZ reporter in B. subtilis
[3] = tested on: S. meliloti strain SMP4A (ΔldtRSMc-pBBR1MCS-5::LdtR(T43A))
[4] = tested on: S. meliloti strain SMP4B (ΔldtRSMc-pBBR1MCS-5::LdtR(L61A))
[5] = tested on: S. meliloti strain SMP4C (ΔldtRSMc-pBBR1MCS-5::LdtR(F64A))

## CCc1oc2ccccc2c1C(=O)c1cc(Br)c(O)c(Br)c1 [benzbromarone]
[1]
  decrease in β-galactosidase activity: around 40%
[2]
  decrease in β-galactosidase activity: around 40%
[3]
  Growth rate constant, k: 0.056 ± 0.004 generations/h
  Mean generation time: 17.9 h
[4]
  Growth rate constant, k: 0.056 ± 0.005 generations/h
  Mean generation time: 17.9 h
[5]
  Growth rate constant, k: 0.058 ± 0.003 generations/h
  Mean generation time: 17.2 h
